Type in all cases: cell-based
Assay [1] has as its system Escherichia coli IFO 12734. In words: In vitro antibacterial activity, agar plate dilution method (MIC). The settings on record: for MIC: IFO12734, read-out: Antibacterial spectrum MIC. How it is done:
(§1) The in vitro antibacterial activity of the present compound (Example 2, 4, 6, 8, 10, 12, 14, 16 and 18) was tested by the standard method of Japan Chemical Therapy Institute using agar plate dilution method which is described in CHEMOTHERAPY Vol.29, […], 1981. For an anaerobic bacteria, it was tested by the method described in CHEMOTHERAPY Vol. 27, 559-590, 1979. The minimum concentration at which the growth of a bacteria could be inhibited by the present compound was decided as MIC (μg/ml).

The test system of assay [2] is Pseudomonas aeruginosa CSJ 1853. Described as above. The settings on record: for MIC: CSJ1853, read-out: Antibacterial spectrum MIC. How it is done:
as §1

The subject of assay [3] is Streptococcus Pneumoniae IID553. The assay is described as above. The settings on record: for MIC: read-out: Antibacterial spectrum MIC. How it is done: as §1
Assay [4] has as its system Streptococcus aureus Clin-211. The assay is described as above. The settings on record: for MIC: CLIN211, read-out: Antibacterial spectrum MIC. The procedure: as §1
Assay [5] has as its system Streptococcus aureus JCM2874. Described as above. The settings on record: for MIC: read-out: Antibacterial spectrum MIC. The procedure:
as §1

Assay [6] concerns Bacteroides fragilis GAI0675. In words: In vitro antibacterial activity against anaerobic bacteria (MIC). The settings on record: Bacteroides fragilis GAI0675 (Table 2: Bacteroides GMI0675), anaerobic bacteria method; for MIC: read-out: Antibacterial spectrum MIC. How it is done: as §1

≈ marks a conversion by molar mass, not a printed value.

Take `Cc1c(-c2ccc3c(c2)CNC3C)ccn2c(=O)c(C(=O)O)cc(C3CC3)c12` (stereo not drawn) [Example 2, 1-cyclopropyl-9-methyl-8-(1-methylisoindoline-5-yl)-4-oxo-4H-quinolizine-3-carboxylic acid]: the MIC amounted to 0.031 µg/mL (≈ 0.0828 µM) in assay [1]; 0.25 µg/mL (≈ 0.668 µM) in assay [2]; 0.063 µg/mL (≈ 0.168 µM) in assay [3]; 0.25 µg/mL (≈ 0.668 µM) in assay [4]; 0.008 µg/mL (≈ 0.0214 µM) in assay [5]; 0.031 µg/mL (≈ 0.0828 µM) in assay [6].

Regarding `COc1c(-c2ccc3c(c2)CNC3C)ccn2c(=O)c(C(=O)O)cc(C3CC3)c12` (stereo not drawn) [Example 4, 1-cyclopropyl-9-methoxy-8-(1-methylisoindoline-5-yl)-4-oxo-4H-quinolizine-3-carboxylic acid], the MIC in assay [1] stood at 0.125 µg/mL (≈ 0.32 µM); in assay [2], 1 µg/mL (≈ 2.56 µM); in assay [3], 0.25 µg/mL (≈ 0.64 µM); in assay [4], 1 µg/mL (≈ 2.56 µM); in assay [5] it was 0.063 µg/mL (≈ 0.161 µM); in assay [6], 0.25 µg/mL (≈ 0.64 µM).

As for `Cc1c(-c2ccc3c(c2)CNC3)ccn2c(=O)c(C(=O)O)cc(C3CC3)c12` [Example 6, 1-cyclopropyl-9-methyl-8-(isoindoline-5-yl)-4-oxo-4H-quinolizine-3-carboxylic acid], the MIC was 0.016 µg/mL (≈ 0.0444 µM) in assay [1]; 0.25 µg/mL (≈ 0.694 µM) in assay [2]; 0.031 µg/mL (≈ 0.086 µM) in assay [3]; 0.125 µg/mL (≈ 0.347 µM) in assay [4]; 0.008 µg/mL (≈ 0.0222 µM) in assay [5]; 0.031 µg/mL (≈ 0.086 µM) in assay [6].

`COc1c(-c2ccc3c(c2)CNC3)ccn2c(=O)c(C(=O)O)cc(C3CC3)c12` [Example 8, 1-cyclopropyl-9-methoxy-8-(isoindoline-5-yl)-4-oxo-4H-quinolizine-3-carboxylic acid]: the MIC in assay [1] came to 0.063 µg/mL (≈ 0.167 µM); in assay [2] it was 1 µg/mL (≈ 2.66 µM); in assay [3], 0.25 µg/mL (≈ 0.664 µM); in assay [4], 0.5 µg/mL (≈ 1.33 µM); in assay [5], 0.063 µg/mL (≈ 0.167 µM); in assay [6], 0.25 µg/mL (≈ 0.664 µM).

`CC1NCc2cc(-c3ccn4c(=O)c(C(=O)O)cc(C5CC5)c4c3OC(F)F)ccc21` (stereo not drawn) [Example 10, 1-cyclopropyl-9-difluoromethoxy-8-((+)-1-methylisoindoline-5-yl)-4-oxo-4H-quinolizine-3-carboxylic acid]: the MIC in assay [1] is 0.125 µg/mL (≈ 0.293 µM); in assay [2] it was 4 µg/mL (≈ 9.38 µM); in assay [3], 0.25 µg/mL (≈ 0.586 µM); in assay [4], 1 µg/mL (≈ 2.35 µM); in assay [5], 0.063 µg/mL (≈ 0.148 µM); in assay [6], 0.5 µg/mL (≈ 1.17 µM).

For the compound `O=C(O)c1cc(C2CC2)c2c(OC(F)F)c(-c3ccc4c(c3)CNC4)ccn2c1=O` [Example 12, 1-cyclopropyl-9-difloromethoxy-8-(isoindoline-5-yl)-4-oxo-4H-quinolizine-3-carboxylic acid], the “Antibacterial spectrum MIC” value was found to be 0.125 µg/mL in assay [1]; 4 µg/mL in assay [2]; 0.25 µg/mL in assay [3]; 1 µg/mL in assay [4]; 0.031 µg/mL in assay [5]; 0.25 µg/mL in assay [6].

Consider `Cc1c(-c2cc(F)c3c(c2)CNC3)ccn2c(=O)c(C(=O)O)cc(C3CC3)c12` [Example 14, 1-cyclopropyl-8-(4-fluoroisoindoline-6-yl)-9-methyl-4-oxo-4H-quinolizine-3-carboxylic acid], for which the MIC in assay [1] is 0.031 µg/mL (≈ 0.0819 µM); in assay [2], 0.5 µg/mL (≈ 1.32 µM); in assay [3], 0.031 µg/mL (≈ 0.0819 µM); in assay [4] it was 0.125 µg/mL (≈ 0.33 µM); in assay [5] it was 0.008 µg/mL (≈ 0.0211 µM); in assay [6] it was 0.016 µg/mL (≈ 0.0423 µM).

Consider `COc1cc(-c2ccn3c(=O)c(C(=O)O)cc(C4CC4)c3c2OC)cc2c1CNC2` [Example 16, 1-cyclopropyl-9-methoxy-8-(4-methoxyisoindoline-6-yl)-4-oxo-4H-quinolizine-3-carboxylic acid], for which the MIC in assay [1] is 0.5 µg/mL (≈ 1.23 µM); in assay [2] it was 8 µg/mL (≈ 19.7 µM); in assay [3] it was 0.5 µg/mL (≈ 1.23 µM); in assay [4], 2 µg/mL (≈ 4.92 µM); in assay [5] it was 0.125 µg/mL (≈ 0.308 µM); in assay [6] it was 0.25 µg/mL (≈ 0.615 µM).

As for `COc1cc(-c2ccn3c(=O)c(C(=O)O)cc(C4CC4)c3c2C)cc2c1CNC2` [Example 18, 1-cyclopropyl-9-methyl-8-(4-methoxy-isoindoline-6-yl)-4-oxo-4H-quinolizine-3-carboxylic acid], the minimal inhibitory concentration (MIC) in assay [1] was found to be 0.125 µg/mL (≈ 0.32 µM); in assay [2], 2 µg/mL (≈ 5.12 µM); in assay [3], 0.125 µg/mL (≈ 0.32 µM); in assay [4] it was 0.5 µg/mL (≈ 1.28 µM); in assay [5] it was 0.031 µg/mL (≈ 0.0794 µM); in assay [6], 0.063 µg/mL (≈ 0.161 µM).

As to `C[C@H]1COc2c(N3CCN(C)CC3)c(F)cc3c(=O)c(C(=O)O)cn1c23` [LVFX, levofloxacin, reference compound], the MIC stood at 0.063 µg/mL (≈ 0.174 µM) in assay [1]; 0.5 µg/mL (≈ 1.38 µM) in assay [2]; 1 µg/mL (≈ 2.77 µM) in assay [3]; 4 µg/mL (≈ 11.1 µM) in assay [4]; 0.25 µg/mL (≈ 0.692 µM) in assay [5]; 0.5 µg/mL (≈ 1.38 µM) in assay [6].

The MIC is the lowest concentration that inhibits growth of the organism.

Source of the values: US6525066B2, “4-oxoquinolizine antimicrobial having 2-pyridone skeleton as partial structure” (SATO Pharmaceutical Co., Ltd., priority 1999, dated 2003).
